According to PMC8877233, “The Hydrophobicity and Antifungal Potentiation of Burkholdine Analogues” (Molecules, 2022):
Starred links: 1 amine or outer side, 2 acyl side, 3 side chain; linkers in the order of their positions; H or OH if unused. Positions of bridges follow the written chain, without caps; N, C: chain ends. Non-standard residues stand in square brackets, D forms with d. Residues, ends and D or L forms follow the SMILES beside them. X3 = CCCCCCCCCCC(=O)N[C@H](C(=O)NC[C@@H](CC(=O)[*:1])N[*:2])[C@@H](C)O; X2 = CCCCCCCCNC(=O)[C@H](O)[C@@H](O)C(=O)NC[C@@H](CC(=O)[*:1])N[*:2]

Assays:
[1] = test system: S. cerevisiae (ATCC204504); format: cell-based; details: ATCC204504, 24 h
Procedure: Bacto yeast extract (0.63 g, 70161, Fluka, Barcelona, Spain), peptone (1.00 g, 26421, Mikuni, Japan), and glucose (1.00 g, 16806-25, Nacalai tesque, Japan) were added to H2O (50 mL) at room temperature and the mixture was heated to 60 °C. After 30 min, the mixture was sterilized by heating in an autoclave at 121 °C for 20 min.
DMSO (8 µL, 13406-55, Nacalai tesque, Japan) was added to YPD medium (750 µL). The test fungus culture solution (3 µL) was added to this solution (1.5 mL).
The inhibitor (each 1.0 mg; 3a–h, 4a–b, 5a–b, 6a–b, 7, 8) was dissolved in DMSO (40 µL).
The prepared test bacteria (50 µL) were placed in A1–A12 of a 96-well plate. Bk analogue (50 µL) was added to A1, pipetting was performed, and then 50 µL was extracted from A1 and placed in A2. This operation was repeated until A11, and 50 µL extracted from A11 was discarded. The well plate was closed and incubated at 30 °C. After 24 h, the MIC values were evaluated.

[2] = RP-HPLC retention time as measure of hydrophilicity/hydrophobicity; format: physicochemical; details: chromatographic, Cosmosil 5C18-AR-II 4.6 x 150 mm, linear gradient 30–70% MeCN/H2O (0.1% TFA) for 30 min, 1 mL/min, UV 220 nm
Procedure: […] In all cases, the retention times of the (S)-Dab-containing peptides were shorter than those of the (R)-Dab-containing peptides, which were similar to those bearing L-Orn. The retention times of the cyclic peptides were shorter for Tat > D-Ser > L-Thr > L-Ser, while peptides bearing the undecanoic acid moiety eluted […] than those bearing the decanoic acid by about 2 min.

[3] = test system: S. cerevisiae; test: Potentiation assay with G418; format: cell-based; details: for potentiation of the effect of G418: S. cerevisiae, peptide dose 100 µg/mL, result in words
Procedure: (§1) Two antibiotics with different mechanisms of action can have a synergistic effect, together exerting an antifungal activity higher than the sum of their individual activities. Accordingly, the potentiation of the antifungal effect of G418 (Geneticin), an aminoglycosyl-type antibiotic that inhibits protein biosynthesis by binding to the ribosome 70S and 80S subunits, and zeocin (phleomucin D1), a glycopeptide antibiotic and DNA intercalator, by cyclic peptides (3a)–(8) was evaluated. Although the relatively high PSA and negative logP values of Bk analogues (3a)–(8) are not conductive to cell penetration, there was the possibility that their fatty side chains have an affinity for cell surfaces. […] The mechanism of action is not clear, but it is possible that the interaction of the cyclic peptides (3a)–(8) with the cell wall increases its susceptibility to penetration by G418.
(§2) The prepared test bacteria (50 µL) were placed in well A1–A12 of a 96-well plate. G418 (200 mg/mL, 108321-42-2, Nacalai tesque, Japan) in H2O, then medium […] was added to A1, pipetting was performed, and 50 µL was extracted from A1 and placed in A2. This operation was repeated until A11, and 50 µL extracted from A11 was discarded. After 30 min, Bk analogue (200 μg/mL) in medium […] was added to each solution (final concentration = 100 μg/mL). The well plate was closed and incubated at 30 °C. After 24 h, the MIC and potentiation values were evaluated.

[4] = test system: Candida albicans; details: cited from earlier work
Description: The burkholdines (Bks) are a family of 25-membered cyclic lipopeptides composed of eight amino acids arranged in a lactam ring bearing a lipophilic side chain, which were first isolated from the proteobacteria Burkholderia ambifaria 2.2N by Schmidt in 2010 [1, 2, 3, 4]. […] The mechanism of this activity is thought to entail the inhibition of fungal β-glucan synthase, as is the case for the candine anti ...

[5] = test system: S. cerevisiae; test: Potentiation assay with zeocin; format: cell-based; details: assays attempted three times
Procedure: as §1
as §2, with “After 24 h, the MIC and potentiation values were evaluated.” left out

Row | MIC [1] [µg/mL] | tR [2] [min] | Compound | potentiation of the effect of G418 [3] | MIC90 [4] [µg/mL] | also measured
1 | >200 | 6.4 | CCCCCCCCNC(=O)[C@H](O)[C@@H](O)C(=O)NC[C@H]1CC(=O)N[C@H](CO)C(=O)N[C@H](Cc2ccc(O)cc2)C(=O)N[C@H](CC(N)=O)C(=O)NCC(=O)N[C@@H](CC(N)=O)C(=O)N[C@@H](CO)C(=O)N[C@@H](CC(N)=O)C(=O)N1 [Compound 5b, Cyclo-[(2R,3R)-2,3-dihydroxy-4-(octylamino)-4-oxobutanoic Acid-(R)-7-D-Ser-D-Tyr-D-Asn-Gly-Asn-Ser-Asn]] ([dS][dY][dN]GNSN; linker N-C via X2) | weak potentiating effects |  | 
2 | >200 | 10.7 | CCCCCCCCCCC(=O)N[C@H](C(=O)NC[C@H]1CC(=O)N[C@H](CO)C(=O)N[C@H](Cc2ccc(O)cc2)C(=O)N[C@H](CC(N)=O)C(=O)NCC(=O)N[C@@H](CC(N)=O)C(=O)N[C@@H](CO)C(=O)N[C@@H](CC(N)=O)C(=O)N1)[C@@H](C)O [Compound 4b, Cyclo-[Undecanoic Acid-Thr-(R)-7-D-Ser-D-Tyr-D-Asn-Gly-Asn-Ser-Asn]] ([dS][dY][dN]GNSN; linker N-C via X3) | weak potentiating effects |  | 
3 |  |  | CN[C@@H]1[C@@H](O)[C@@H](O[C@@H]2[C@@H](O)[C@H](O[C@H]3O[C@H]([C@@H](C)O)[C@@H](O)[C@H](O)[C@H]3N)[C@@H](N)C[C@H]2N)OC[C@]1(C)O [Compound G418, G418, reference compound] |  |  | MIC ([3]; Saccharomyces cerevisiae, 24 h, read-out: MIC of G418 alone): 25000 µg/mL
4 |  |  | micafungin |  | 0.015 | 
5 |  |  | caspofungin |  | 0.25 | 
6 |  |  | Cc1c(N)nc([C@H](CC(N)=O)NC[C@H](N)C(N)=O)nc1C(=O)N[C@H](C(=O)N[C@H](C)[C@@H](O)[C@H](C)C(=O)N[C@H](C(=O)NCCC1=N[C@@H](c2nc(C(=O)NCCCCN=C(N)N)cs2)CS1)[C@@H](C)O)[C@@H](O[C@@H]1O[C@@H](CO)[C@@H](O)[C@H](O)[C@@H]1O[C@H]1O[C@H](CO)[C@@H](O)[C@H](OC(N)=O)[C@@H]1O)c1cnc[nH]1 [zeocin] |  |  | MIC of zeocin alone [5]: 3130 µg/mL
